This passage reports IC50 results from PMC6002473, “An Evolutionarily Conserved Structural Platform for PRC2 Inhibition by a Class of Ezh2 Inhibitors” (Scientific Reports, 2018).

For the assay, the target named is T1, ctEzh2 (ctPRC2) (Thermochaetoides thermophila, UniProt G0SDW4).
T1 construct: gene EZH2; Fusion of Ezh2 (residues 191–950) and the VEFS domain of Suz12 (residues 530–691), and full length Eed (residues 1–565); with Eed, Suz12(VEFS)
T1 sequence (G0SDW4 191-950): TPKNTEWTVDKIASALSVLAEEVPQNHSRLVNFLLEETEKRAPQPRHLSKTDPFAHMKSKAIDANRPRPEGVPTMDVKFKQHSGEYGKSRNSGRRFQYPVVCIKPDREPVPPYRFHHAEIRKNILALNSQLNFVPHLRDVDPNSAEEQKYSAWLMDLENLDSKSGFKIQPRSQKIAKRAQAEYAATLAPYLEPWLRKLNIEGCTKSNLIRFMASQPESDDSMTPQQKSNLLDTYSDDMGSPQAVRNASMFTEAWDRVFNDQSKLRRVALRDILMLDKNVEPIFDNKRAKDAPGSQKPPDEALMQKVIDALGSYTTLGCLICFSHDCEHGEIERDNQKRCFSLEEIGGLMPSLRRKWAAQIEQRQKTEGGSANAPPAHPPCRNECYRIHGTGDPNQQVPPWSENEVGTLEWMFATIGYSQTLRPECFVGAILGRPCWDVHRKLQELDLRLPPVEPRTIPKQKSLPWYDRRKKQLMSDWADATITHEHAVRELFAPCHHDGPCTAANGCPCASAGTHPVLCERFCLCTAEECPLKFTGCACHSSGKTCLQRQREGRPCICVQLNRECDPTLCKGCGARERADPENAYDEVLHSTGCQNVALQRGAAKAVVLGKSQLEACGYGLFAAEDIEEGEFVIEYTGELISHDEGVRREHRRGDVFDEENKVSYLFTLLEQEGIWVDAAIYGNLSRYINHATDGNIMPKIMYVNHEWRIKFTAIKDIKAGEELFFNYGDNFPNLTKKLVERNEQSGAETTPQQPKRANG
T1 sequence (G0S8H7 1-565 partner): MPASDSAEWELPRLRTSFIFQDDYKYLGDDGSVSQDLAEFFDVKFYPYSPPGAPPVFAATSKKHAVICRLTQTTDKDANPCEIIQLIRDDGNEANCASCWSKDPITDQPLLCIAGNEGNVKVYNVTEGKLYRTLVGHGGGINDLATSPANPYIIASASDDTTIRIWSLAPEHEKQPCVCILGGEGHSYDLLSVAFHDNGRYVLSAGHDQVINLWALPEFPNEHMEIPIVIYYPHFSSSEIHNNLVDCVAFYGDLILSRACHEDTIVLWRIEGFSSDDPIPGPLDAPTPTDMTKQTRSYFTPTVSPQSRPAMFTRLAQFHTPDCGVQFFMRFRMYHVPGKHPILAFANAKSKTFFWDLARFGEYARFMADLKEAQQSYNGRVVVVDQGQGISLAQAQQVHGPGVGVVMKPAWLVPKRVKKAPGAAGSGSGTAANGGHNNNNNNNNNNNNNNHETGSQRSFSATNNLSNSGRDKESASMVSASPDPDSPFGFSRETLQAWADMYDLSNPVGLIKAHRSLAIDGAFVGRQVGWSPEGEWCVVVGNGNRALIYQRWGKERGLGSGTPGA
T1 sequence (G0RYC6 530-691 partner): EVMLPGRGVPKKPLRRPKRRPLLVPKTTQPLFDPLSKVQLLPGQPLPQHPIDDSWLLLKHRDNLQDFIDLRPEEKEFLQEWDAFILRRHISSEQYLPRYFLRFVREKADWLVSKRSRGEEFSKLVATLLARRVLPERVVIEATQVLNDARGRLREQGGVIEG
In words: co-crystal structure ([…] Å, soaked); radiometric methyltransferase IC50. The format is biochemical.

Each structure is given as a SMILES string.

Regarding `CC[C@H](C)n1cc(C)c2c(C(=O)NCc3c(C)cc(C)[nH]c3=O)cc(-c3ccc(N4CCNCC4)nc3)cc21` [GSK126], the IC50 is ~100 µM.
